Assay results: PMC11809514, “Investigation of the activity of 4-aminoquinolines as cysteine protease inhibitors with application in the treatment of Chagas disease” (Memórias do Instituto Oswaldo Cruz, 2025)
Where two headings read alike, the source gives them in different places.

What was measured:
[1] = tested on: L929 cells (mouse fibroblasts); test: In vitro cytotoxicity over L929 cell line (alamarBlue); format: cell-based; settings: ratio CC50 L929 / IC50 T. cruzi
Protocol: (§1) In vitro cytotoxic activity test of compounds and CC 50 determination over L929 cell line - For this bioassay, 4,000 L929 cells in 200 μL of RPMI-1640 medium (pH 7.2-7.4) (Gibco BRL) plus 10% foetal bovine serum and 2 mM glutamine were added to each well of a 96-well microtiter plate that was incubated for three days at 37 °C. The medium was then replaced, and the cells were exposed to compounds at increasing concentrations starting at IC50 value for T. cruzi. After 96 h of incubation with the compounds the alamarBlueTM was added and the absorbance at 570 and 600 nm was measured after 4-6 h. Controls with untreated and DMSO 1%-treated cells were run in parallel. The results were expressed as the percent difference in the reduction between treated and untreated cells. The compound concentration that inhibits 50% of the L929 cell viability (CC50) was determined. Quadruplicates were run in the same plate and the experiments were repeated at least once.
(§2) IC50 over T. cruzi and L929 cells were determined by linear interpolation and the selectivity index (SI) was calculated by the ratio of CC50 L929 cells/ IC50 T. cruzi.

[2] = tested on: T. cruzi Tulahuen strain (amastigotes and trypomastigotes); test: Anti-T. cruzi activity assay (amastigotes and trypomastigotes) in infected L929 cells, beta-galactosidase reporter; format: cell-based, Trypanosoma cruzi; settings: 96 h exposure
Protocol: Anti-T. cruzi activity assay (amastigotes and trypomastigotes) - The in vitro anti-T. cruzi activity was evaluated on L929 cells (mouse fibroblasts) infected with Tulahuen strain of the parasite expressing the Escherichia coli β-galactosidase as reporter gene according to the method described previously.[49] Briefly, for the bioassay, 4,000 L929 cells were added to each well of a 96-well microtiter plate. After an overnight incubation, 40,000 trypomastigotes were added to the cells and incubated for 2 h. Then the medium containing extracellular parasites was replaced with 200 μL of fresh medium and the plate was incubated for an additional 48 h to establish the infection. For IC50 determination, the cells were exposed to each synthesized compound at serial decreasing dilutions and the plate was incubated for 96 h. After this period, 50 μL of 500 μM chlorophenol red beta-D-galactopyranoside (CPRG) in 0.5% Nonidet P40 was added to each well, and the plate was incubated for 16 to 20 h, after which the absorbance at 570 nm was measured. Controls with uninfected cells, untreated infected cells, infected cells treated with benznidazole at 3.8 μM (positive control) or DMSO 1% were used. The results were expressed as the percentage of T. cruzi growth inhibition in compound tested cells as compared to the infected cells and untreated cells. The IC50 values were calculated by linear interpolation. Quadruplicates were run in the same plate, and the experiments were repeated at least once.
as §2

[3] = tested on: cruzain; settings: cited from earlier work
[4] = tested on: mammalian cathepsin B; set-up: method as in PMID 28215783, PMID 32116030; settings: cited from earlier work
[5] = tested on: mammalian cathepsin S; set-up: method as in PMID 28215783, PMID 32116030; settings: cited from earlier work
[6] = target: T1, Recombinant cruzain (Trypanosoma cruzi, UniProt P25779); test: Cruzain inhibition, cleavage of fluorogenic substrate Z-FR-AMC; format: biochemical; settings: for inhibition at 23 µM: compound at 23 µM
T1 construct: gift: Allison Doak and Prof Brian Shoichet (University of California San Francisco)
Protocol: (§3) Assays against cruzain and TbrCATL - Recombinant cruzain and TbrCatL were generously provided by Allison Doak and Prof Brian Shoichet (University of California San Francisco, San Francisco, CA, USA) and Prof Conor Caffrey (University of California San Diego, San Diego, CA, USA), respectively. Enzyme activity was measured by monitoring the cleavage of the fluorogenic substrate Z-Phe-Arg-amidomethylcoumarin (Z-FR-AMC) at 25 °C. Fluorescence was monitored at 340/440 nm (excitation/emission) in a Biotec 87 Synergy 2 fluorimeter. Assays were conducted in 96-well flat bottom black plates in 0.1 M sodium acetate buffer, pH 5.5, 10 mM β-mercaptoethanol, 0.01% Triton X-100, […] enzyme and 2.5 µM substrate. DMSO and 1 µM E-64 were employed as negative and positive controls, respectively, in all assays. Assays were performed in triplicate, and enzyme activity was measured for 5 min. Reported values correspond to the mean and standard error of the mean (SEM).
(§4) Compounds were initially screened at a concentration of 100 µM against cruzain with and without a 10 min pre-incubation with the enzyme. […] IC50 values were determined from two independent experiments, each with seven compounds concentrations in triplicate. Dose-response curves were built by non-linear regression with Graph Pad Prism 6.
To evaluate the effects of Triton X-100 concentration on enzyme inhibition, assays were conducted using 0.1%, 0.01% and 0% Triton X-100. To access the impact of pre-incubation of bovine serum albumin (BSA) on enzyme inhibition, compounds were incubated with BSA (4 mg/mL, for a final assay concentration of 1 mg/mL) for 10’ followed by 10’ incubation with 2 nM enzyme. Finally, Z-FR-AMC was added to each well and the fluorescence was immediately read.

[7] = target: T2, Recombinant TbrCatL (Trypanosoma brucei rhodesiense, UniProt Q95PM0); test: TbrCatL inhibition, cleavage of fluorogenic substrate Z-FR-AMC; format: biochemical, T. brucei
T2 construct: gift: Prof Conor Caffrey (University of California San Diego)
Protocol: as §3, §4

[8] = In vitro cytotoxicity over L929 cell line (alamarBlue); format: cell-based, mouse; settings: mouse, L929 cells (mouse fibroblasts); uninfected L929 cells; 96 h incubation
Protocol: as §1, §2

[9] = 100 µM compound, 10 min pre-incubation with enzyme, 0.01% Triton X-100, read-out: % Inhibition at 100 µM (Mean ± SEM) Cruzain 10' pre-incubation
[10] = 100 µM compound, no pre-incubation, 0.01% Triton X-100, read-out: % Inhibition at 100 µM (Mean ± SEM) Cruzain No pre-incubation
[11] = 100 µM compound, 10 min pre-incubation with enzyme, read-out: % Inhibition at 100 µM (Mean ± SEM) TbrCATL 10' pre-incubation

T2 sequence (Q95PM0 entry or part of it): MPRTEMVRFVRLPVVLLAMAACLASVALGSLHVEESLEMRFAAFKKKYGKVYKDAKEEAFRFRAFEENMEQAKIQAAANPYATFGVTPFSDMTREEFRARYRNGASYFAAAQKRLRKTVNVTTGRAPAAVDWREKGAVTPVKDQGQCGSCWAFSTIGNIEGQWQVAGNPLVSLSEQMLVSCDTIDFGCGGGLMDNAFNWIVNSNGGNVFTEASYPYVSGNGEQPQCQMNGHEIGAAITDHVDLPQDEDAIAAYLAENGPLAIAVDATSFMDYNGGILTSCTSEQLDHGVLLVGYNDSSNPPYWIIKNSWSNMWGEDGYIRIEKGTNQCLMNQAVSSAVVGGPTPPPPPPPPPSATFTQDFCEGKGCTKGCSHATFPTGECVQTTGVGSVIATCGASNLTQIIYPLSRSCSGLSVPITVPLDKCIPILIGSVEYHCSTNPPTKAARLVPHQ
T1 sequence (P25779 123-467): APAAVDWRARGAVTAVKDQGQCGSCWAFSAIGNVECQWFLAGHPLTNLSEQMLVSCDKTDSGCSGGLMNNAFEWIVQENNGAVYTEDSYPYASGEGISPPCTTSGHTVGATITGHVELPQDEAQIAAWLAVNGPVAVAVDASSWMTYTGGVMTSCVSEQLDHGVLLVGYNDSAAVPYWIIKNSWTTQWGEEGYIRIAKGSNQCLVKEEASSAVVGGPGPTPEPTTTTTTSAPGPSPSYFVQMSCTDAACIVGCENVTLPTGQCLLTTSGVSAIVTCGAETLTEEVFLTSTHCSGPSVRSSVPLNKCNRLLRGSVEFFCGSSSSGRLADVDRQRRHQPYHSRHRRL

In the case of `O=C(Cn1ccnc1[N+](=O)[O-])NCc1ccccc1` [Benznidazole, reference compound], the “SI (selectivity index), CC50 L929 cells / IC50 T. cruzi” value [1] is reported as 626 and the IC50 ([2]; Trypanosoma cruzi) is reported as 3.8 ± 0.8 µM.

In the case of `Clc1ccc2[nH]c3c(NCCCN4CCOCC4)ncnc3c2c1` [Compound 1], the IC50 ([3]; hit from HTS) is listed as 2.5 µM and the Ki ([3]; non-covalent competitive inhibitor from HTS) is listed as 2 µM.

For `Clc1ccc2c(NCCCN3CCOCC3)ccnc2c1` [Compound 2], the “Inhibition of mammalian cathepsin B” value [4] is listed as “did not inhibit” and the “Inhibition of mammalian cathepsin S” value [5] is listed as “did not inhibit”.

In the case of `CC(C)(CN)CNc1ccnc2cc(Cl)ccc12` [Compound 3], the “Inhibition of mammalian cathepsin B” value [4] is listed as “did not inhibit” and the “Inhibition of mammalian cathepsin S” value [5] is listed as “did not inhibit”.

In the case of `Clc1ccc2c(NC3CCCCC3)ccnc2c1` [Compound 4, 7-chloro-N-cyclohexylquinolin-4-amine], the inhibition at 100 µM [6, 9] is reported as 18 ± 2%, the inhibition at 100 µM [6, 10] is reported as 19 ± 1% and the inhibition at 100 µM [7, 11] is reported as 38 ± 4%. For the same compound, the CC50 at 96 h [8] was < 2.3 µM and the IC50 ([2]; Trypanosoma cruzi) was 2.57 ± 0.11 µM.

In the case of `Clc1ccc2c(NCc3ccco3)ccnc2c1` [Compound 5, 7-chloro-N-(furan-2-ylmethyl)quinolin-4-amine], the inhibition at 100 µM [6, 9] is reported as 99 ± 1%, the inhibition at 100 µM [6, 10] is reported as 93 ± 1% and the inhibition at 23 µM ([6]; 0.01% Triton X-100, read-out: % Inhibition of cruzain (Mean ± SEM) Triton 0.01%) is reported as 28.4 ± 2%. The inhibition at 23 µM ([6]; 0.1% Triton X-100, read-out: % Inhibition of cruzain (Mean ± SEM) Triton 0.1%) was 28.4 ± 3%, the inhibition at 23 µM ([6]; no Triton X-100, read-out: % Inhibition of cruzain (Mean ± SEM) Triton 0%) was 100 ± 1% and the inhibition at 23 µM ([6]; pre-incubation with BSA (final 1 mg/mL), no Triton X-100, read-out: % Inhibition of cruzain (Mean ± SEM) BSA + Triton 0%) was 32.2 ± 1%. The IC50 ([6]; two independent experiments, seven concentrations in triplicate, read-out: IC50 against cruzain) was 23 µM, the inhibition at 100 µM [7, 11] was 94 ± 1% and the inhibition at 100 µM ([7]; 100 µM compound, no pre-incubation, read-out: % Inhibition at 100 µM (Mean ± SEM) TbrCATL No pre-incubation) was 87 ± 3%. The IC50 ([7]; two independent experiments, seven concentrations in triplicate, read-out: IC50 against TbrCatL) was 29 µM and the IC50 ([2]; Trypanosoma cruzi) was 143 µM.

In the case of “N-butyl-7-chloroquinolin-4-amine [Compound 6]”, the “% Inhibition at 100 µM (Mean ± SEM) Cruzain 10' pre-incubation” value ([6]; 100 µM compound, 10 min pre-incubation with enzyme, 0.01% Triton X-100) is reported as 35 ± 1%, the “% Inhibition at 100 µM (Mean ± SEM) Cruzain No pre-incubation” value ([6]; 100 µM compound, no pre-incubation, 0.01% Triton X-100) is reported as 35 ± 1% and the “% Inhibition at 100 µM (Mean ± SEM) TbrCATL 10' pre-incubation” value ([7]; 100 µM compound, 10 min pre-incubation with enzyme) is reported as 42 ± 4%. The IC50 [2] was 150 µM.
